Measurements reported in patent US12419855B2, “Compositions comprising cannabinoid ions that are dissolved in glycerol” (Natural Extraction Systems, LLC, priority 2019, dated 2025).

Key:
[1] = system: active seizures in an epileptic Entlebucher Mountain Dog; experiment: Arresting active seizures in canine; assay type: in vivo; conditions: single oral dose of 0.5-1.0 mg/kg in a formulation prepared according to Example 1
chronic insomnia = experiment: Efficacy against insomnia in humans; assay type: in vivo; conditions: adult human with chronic insomnia; approximately 25 milligrams in a formulation prepared according to Example 3; self-reported
[2] = Solubility in ethanol:glycerol; assay type: physicochemical; conditions: in 25:75 by volume ethanol:glycerol; stated as lower than the 25 grams per liter of cannabidiol anion in the formulation
Description: Cannabidiol is deprotonated in 0.5 molar potassium hydroxide in 190 proof ethanol to produce cannabidiol anion (2-(6-isopropenyl-3-methylcyclohex-2-en-1-yl)-3-hydroxy-5-pentylbenzene-1-oxide).

In the case of `C=C(C)C1CCC(C)=CC1c1c(O)cc(CCCCC)cc1O` (centres unmarked) [cannabidiol anion, 2-(6-isopropenyl-3-methylcyclohex-2-en-1-yl)-3-hydroxy-5-pentylbenzene-1-oxide], the “arrest of active seizures” value [1] is reported as “both consistently and instantaneously arrested active seizures” and the “seizure duration and severity” value [1] is reported as “reduced seizure duration and severity”.
In the case of `CCCCCc1cc(O)c(CC=C(C)CCC=C(C)C)c(O)c1` [cannabigerol anion, 2-(3,7-dimethylocta-2,6-diene-1-yl)-3-hydroxy-5-pentylbenzene-1-oxide], the “onset time of sedative effect” value (chronic insomnia) is reported as “less than five” and the “sedative effect on insomnia” value (chronic insomnia) is reported as “effective at treating the insomnia”.
For `C=C(C)[C@@H]1CCC(C)=C[C@H]1c1c(O)cc(CCCCC)cc1O` [molecular cannabidiol, cannabidiol], the “solubility of molecular cannabidiol” value [2] was less than 25 grams per liter.
